Measurements published in PMC10892288, “Early Stage Preclinical Formulation Strategies to Alter the Pharmacokinetic Profile of Two Small Molecule Therapeutics” (Pharmaceuticals, 2024).

Experiments:
[1] = Mouse IV infusion of G7883 by iPRECIO pump; format: in vivo, female C57BL-6 mice
Text: This is often a concern for molecules in early drug discovery stages. Various formulation and delivery strategies have been devised to modify the systemic PK profiles of drug molecules, encompassing nanoparticles, microparticles, lipid and polymer conjugation, implanted infusion pump device technologies, and subcutaneous depots. Here, we examined two strategies aimed at maintaining the drug concentration at a designed target concentration for the maximum duration potentially needed for proof of concept studies. The initial approach involved using an implantable device, the iPRECIO pump that allows for a controlled and sustained infusion, as opposed to a typical bolus IV injection. The infusion pump strategies can be a promising tool to achieve the desired delivery profile of a compound, given the solubility requirements based on the intended target release and PK profile. […]
All plasma and cell media concentrations of G7883 and G6893 were determined using liquid chromatography–tandem mass spectrometry after protein precipitation with acetonitrile and injection of the supernatant onto the column (Waters ACQUITY UPLC BEH C18 1.7 μm, 2.1 × 50 mm for G7883 and G6893). […] The lower limit of quantitation of the assay was 5.1 ng/mL, and the dilution quality control concentration was set at 10 ng/mL with acceptance criteria for accuracy and precision of 25%.

[2] = Mouse PK of G7883, SC in sunflower oil; format: in vivo
Procedure: was screened in different oil vehicles including corn, coconut, paraffin, soybean, and sunflower oil. […] For subcutaneous administrations, […] was formulated in sunflower oil as a suspension and dosed at 250 mg/kg with a dosing volume of 5 mL/kg. Food and water were available ad libitum to animals. Blood samples were collected post-dose into tubes containing K2EDTA as an anticoagulant. Samples were taken from three different animals at each time point. After the blood was mixed with K2EDTA, the samples were stored at -80 °C until analysis. All plasma and cell media concentrations of […] and […] were determined using liquid chromatography-tandem mass spectrometry after protein precipitation with acetonitrile and injection of the supernatant onto the column (Waters ACQUITY UPLC BEH C18 1.7 μm, 2.1 × 50 mm for […] and […]). The aqueous mobile phase was 0.1% formic acid, 2 mM ammonium formate in water/acetonitrile (v:v, 95:5), and the organic mobile phase was 0.1% formic acid, 2 mM ammonium formate in acetonitrile/water (v:v, 95:5). An AB Sciex API 4000 Triple Quad instrument was used for detecting […] and […] (Figure S2). The electrospray ionization source in both columns was operated in the positive ion and multiple reaction monitoring (MRM) detection modes. The MRM transitions for […] and […] were m/z 462.2 (Q1) and 253.10 (Q3) and m/z 454.2 (Q1) and 325.9 (Q3), respectively. The dynamic range of both assays was 0.50-50.0 ng/mL, and the total run time was 1.6 min. The lower limit of quantitation of the assay was […], and the dilution quality control concentration was set at 10 ng/mL with acceptance criteria for accuracy and precision of 25%. All plasma and cell media concentrations of […] were determined using liquid chromatography-tandem mass spectrometry after protein precipitation with acetonitrile and injection of the supernatant onto the column (Phenomenex Kinetex XB-C18, 30 × 2.1 mm, 2.6 μm). The aqueous mobile phase was 10 mM of ammonium formate in water, and the organic mobile phase was 0.1% formic acid in acetonitrile. An AB Sciex API 5500 Triple Quad instrument was used for detecting […]. The electrospray ionization source in both columns was operated in the positive ion and MRM detection modes. The MRM transitions for […] were m/z 462.2 (Q1) and 253.10 (Q3), respectively. The dynamic range of the assay was 0.50-50.0 ng/mL, and the total run time was 2 min. The lower limit of quantitation of the assay was […], and the dilution quality control concentration was set at 10 ng/mL with acceptance criteria for accuracy and precision of 25%.

[3] = SC 250 mpk sunflower oil compared with PO 250 mpk
[4] = plasma, 250 mg/kg, SC 250 mpk, sunflower oil suspension, mean ± SD

- reduction of Cmax, SC versus IP ([2]; SC 250 mpk compared with IP 150 mpk): approximately 4 fold
- half-life extension, SC versus PO [2, 3]: 2.5 fold
- increase of AUC, SC oil formulation versus oral [2, 3]: more than 5 fold
- F ([2]; SC 250 mpk, sunflower oil suspension, mean ± SD, 250 mg/kg): 46.4 ± 13.2%
- AUC(0-t) [2, 4]: 137 ± 51.1 µM·h
- Cmax [2, 4]: 16.7 ± 12 µM
- Tmax [2, 4]: 2.67 ± 1.15 h
- half-life [2, 4]: 416 ± 176 min
- bioavailability ([2]; plasma, sc, 250 mg/kg, SC 250 mpk, sunflower oil suspension, mean ± SD): 46%
Compound: Cc1nccnc1-c1nn2c(=O)cc(-c3ccc(C4CCCCC4)cc3)[nH]c2c1C(=O)N1CC(CF)C1 [G7883, 5-(4-cyclohexylphenyl)-3-[3-(fluoromethyl)azetidine-1-carbonyl]-2-(3-methylpyrazin-2-yl)-4H-pyrazolo[1,5-a]pyrimidin-7-one]
- plasma concentration relative to target IC50 ([1]; 3.3 mg/mL in 20% DMSO, 80% PEG400, 1.54 mg/h.kg, over 176 h, mouse): plasma concentrations remained below the target IC50
- body weight over time ([1]; 20% DMSO, 80% PEG400, mouse): prevention of body weight loss over time
